Test results reported in ChEMBL document CHEMBL1129513, “Nonpeptidic inhibitors of human neutrophil elastase. 7. Design, synthesis, and in vitro activity of a series of pyridopyrimidine trifluoromethyl ketones” (J Med Chem, 1996).
Converted amounts (≈) assume the structure as drawn.

How the values were obtained:
Neutrophil elastase = target: T1, Neutrophil elastase (Homo sapiens, UniProt P08246); assay: Inhibition of Human Neutrophil Elastase-catalyzed hydrolysis of the synthetic substrate MeO-Suc-Ala-Ala-Pro-Val-p- nitroanilide.
T1 sequence (P08246 whole entry): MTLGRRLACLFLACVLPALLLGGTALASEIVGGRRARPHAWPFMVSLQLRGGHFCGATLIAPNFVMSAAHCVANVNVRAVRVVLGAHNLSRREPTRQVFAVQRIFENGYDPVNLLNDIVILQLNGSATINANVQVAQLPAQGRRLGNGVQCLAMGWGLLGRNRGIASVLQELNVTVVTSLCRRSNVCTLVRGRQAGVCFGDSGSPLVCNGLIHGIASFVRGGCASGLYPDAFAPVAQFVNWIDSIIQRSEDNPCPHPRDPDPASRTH

[1] = Solubility in 0.01 M sodium phosphate buffer at pH = 7.4; type: physicochemical

SMILES	Ki (Neutrophil elastase) [nM]	solubility [1] [µg/mL]
CC(C)C(NC(=O)Cn1ccc2c(=O)n(Cc3cccc4ccccc34)c(=O)[nH]c2c1=O)C(=O)C(F)(F)F (centres undefined)	26	
CC(C)C(NC(=O)Cn1ccc2c(=O)n(C(C)(C)Cc3ccccc3)c(=O)[nH]c2c1=O)C(=O)C(F)(F)F (centres undefined)	16	
CNC(=O)Cn1c(=O)[nH]c2c(=O)n(CC(=O)NC(C(=O)C(F)(F)F)C(C)C)c(-c3ccccc3)cc2c1=O (centres undefined)	22	100 (≈ 187 µM)
CC(C)C(NC(=O)Cn1ccc2c(=O)n(CCc3ccccc3)c(=O)[nH]c2c1=O)C(=O)C(F)(F)F (centres undefined)	42	
CC(C)C(NC(=O)Cn1c(-c2ccccc2)cc2c(O)nc(O)nc2c1=O)C(=O)C(F)(F)F (centres undefined)	15	220 (≈ 474 µM)
CC(C)C(NC(=O)Cn1ccc2c(=O)n(-c3ccccc3)c(=O)[nH]c2c1=O)C(=O)C(F)(F)F (centres undefined)	830	
CC(C)C(NC(=O)Cn1c(-c2ccccc2)cc2c(=O)n(N(C)C)c(=O)[nH]c2c1=O)C(=O)C(F)(F)F (centres undefined)	19	320 (≈ 631 µM)
CC(C)C(NC(=O)Cn1cccc(NC(=O)OCc2ccccc2)c1=O)C(=O)C(F)(F)F (centres undefined)		110 (≈ 243 µM)
COc1ccc(Cn2c(=O)[nH]c3c(=O)n(CC(=O)NC(C(=O)C(F)(F)F)C(C)C)ccc3c2=O)cc1 (centres undefined)	100	
CC(C)C(NC(=O)Cn1ccc2c(=O)n(Cc3ccccc3)c(=O)[nH]c2c1=O)C(=O)C(F)(F)F (centres undefined)	160	730 (≈ 1530 µM)
CC(C)C(NC(=O)Cn1c(-c2ccccc2)cc2c(=O)n(CCN3CCOCC3)c(=O)[nH]c2c1=O)C(=O)C(F)(F)F (centres undefined)	8.4	300 (≈ 519 µM)
CCOCCn1c(=O)[nH]c2c(=O)n(CC(=O)NC(C(=O)C(F)(F)F)C(C)C)c(-c3ccccc3)cc2c1=O (centres undefined)	7.5	8 (≈ 14.9 µM)
CC(C)C(NC(=O)Cn1ccc2c(=O)n(C)c(=O)[nH]c2c1=O)C(=O)C(F)(F)F (centres undefined)	620	
CC(C)C(NC(=O)Cn1ccc2c(=O)[nH]c(=O)[nH]c2c1=O)C(=O)C(F)(F)F (centres undefined)	910	> 5000
CC(C)C(NC(=O)Cn1ccc2c(=O)n(CCc3cccc4ccccc34)c(=O)[nH]c2c1=O)C(=O)C(F)(F)F (centres undefined)	21	
CC(C)[C@@H](NC(=O)Cn1c(-c2ccccc2)cc2c(=O)n(CC(N)=O)c(=O)[nH]c2c1=O)C(=O)C(F)(F)F	15	130 (≈ 249 µM)
CC(C)[C@@H](NC(=O)Cn1c(-c2ccccc2)cc2c(=O)n(CC(=O)OCc3ccccc3)c(=O)[nH]c2c1=O)C(=O)C(F)(F)F	2.8	
CC(C)C(NC(=O)Cn1ccc2c(=O)n(CC(=O)c3ccccc3)c(=O)[nH]c2c1=O)C(=O)C(F)(F)F (centres undefined)	74	
CC(C)C(NC(=O)Cn1c(-c2ccccc2)cc2c(=O)n(CC(=O)NCc3ccccc3)c(=O)[nH]c2c1=O)C(=O)C(F)(F)F (centres undefined)	9.9	
CC(C)C(NC(=O)Cn1ccc2c(=O)n(CCN3CCOCC3)c(=O)[nH]c2c1=O)C(=O)C(F)(F)F (centres undefined)	330	
CC(C)[C@@H](NC(=O)Cn1ccc2c(=O)n(CC(=O)OC(C)(C)C)c(=O)[nH]c2c1=O)C(=O)C(F)(F)F	290	
CC(C)[C@@H](NC(=O)Cn1ccc2c(=O)n(CC(=O)O)c(=O)[nH]c2c1=O)C(=O)C(F)(F)F	690	
COC(Cn1c(=O)[nH]c2c(=O)n(CC(=O)NC(C(=O)C(F)(F)F)C(C)C)c(-c3ccccc3)cc2c1=O)OC (centres undefined)	12	420 (≈ 760 µM)
CC(=O)Cn1c(=O)[nH]c2c(=O)n(CC(=O)NC(C(=O)C(F)(F)F)C(C)C)ccc2c1=O (centres undefined)	310	
COC(=O)Cn1c(=O)[nH]c2c(=O)n(CC(=O)N[C@@H](C(=O)C(F)(F)F)C(C)C)ccc2c1=O	490	
CC(C)C(NC(=O)Cn1c(-c2ccccc2)cc2c(=O)n(C)c(=O)[nH]c2c1=O)C(=O)C(F)(F)F (centres undefined)	10	44 (≈ 92 µM)
COc1ccc(Cn2c(=O)[nH]c3c(=O)n(CC(=O)NC(C(=O)C(F)(F)F)C(C)C)c(-c4ccccc4)cc3c2=O)cc1 (centres undefined)	5.7	230 (≈ 393 µM)
CC(C)C(NC(=O)Cn1ccc2c(=O)n([C@H]3C[C@@H]3c3ccccc3)c(=O)[nH]c2c1=O)C(=O)C(F)(F)F (some centres undefined)	230	
